Experimental data taken from patent US20190062684A1, “Microfluidic System for Reproducing Functional Units of Tissues and Organs In Vitro” (NORTIS, INC., priority 2012, published 2019).

System: vascular-cell tube (engineered from primary human microvascular endothelial cells)

O=C(O)c1ccccc1-c1c2cc(F)c(=O)cc-2oc2cc(O)c(F)cc12 [Oregon Green]
average permeability through the vascular-cell tube wall: 25 ×10⁻⁶ cm/s
